Measurements as given in US8906925B2, “Pyrido[4,3-B]indoles containing rigid moieties” (Medivation Technologies, Inc., priority 2008, dated 2014).

Assays:
[1] = target: histamine receptor H1 (Homo sapiens, UniProt P35367); assay: Histamine H1 radioligand binding ([3H]Pyrilamine); details: for inhibition at 1 µM: read-out: Histamine Binding (1 μM) H1, percent inhibition of specific binding, 1 μM
Summary of the method: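 Values are percent inhibition of specific [3H]pyrilamine (1.2 nM) binding with compounds at ≤1 μM (1% DMSO vehicle); 180 min incubation at 25 °C, pH 7.4 Tris buffer, on CHO-expressed human H1 receptor; 1 μM pyrilamine defined nonspecific binding, bound ligand counted after filtration.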

[2] = target: T1, human recombinant histamine H2 receptor (Homo sapiens, UniProt P25021); assay: Histamine H2 radioligand binding ([125I]Aminopotentidine); details: read-out: Histamine Binding (1 μM) H2, percent inhibition of specific binding, 1 μM
T1 construct: expressed in transfected cells; host or cells: Chinese hamster ovary (CHO) K1 cells
T1 sequence (P25021 whole entry): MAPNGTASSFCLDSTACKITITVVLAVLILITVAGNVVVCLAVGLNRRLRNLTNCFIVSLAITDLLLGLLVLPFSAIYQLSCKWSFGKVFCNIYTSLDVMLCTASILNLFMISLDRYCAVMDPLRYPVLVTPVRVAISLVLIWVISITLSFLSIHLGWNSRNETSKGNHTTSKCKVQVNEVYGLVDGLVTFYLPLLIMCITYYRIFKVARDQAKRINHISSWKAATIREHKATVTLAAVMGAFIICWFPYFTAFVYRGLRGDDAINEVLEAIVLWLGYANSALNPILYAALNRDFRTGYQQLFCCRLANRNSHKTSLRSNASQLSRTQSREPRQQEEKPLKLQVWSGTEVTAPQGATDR
Summary of the method: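 CHO-K1 cells expressing human recombinant H2 receptor, 50 mM phosphate buffer pH 7.4; compounds incubated with 0.1 nM [125I]aminopotentidine for 120 min at 25 °C. Nonspecific binding defined with 3 μM tiotidine; specifically bound radioligand counted after filtration and washing.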

[3] = target: T2, human recombinant adrenergic α2A receptor (Homo sapiens, UniProt P08913); assay: Adrenergic α2A radioligand binding ([3H]MK-912); details: percent inhibition of specific binding; compound at 1 μM; read-out: Inhibition of ligand binding, Adrenergic α2A
T2 construct: expressed in transfected cells; host or cells: insect Sf9 cells
T2 sequence (P08913 1-465): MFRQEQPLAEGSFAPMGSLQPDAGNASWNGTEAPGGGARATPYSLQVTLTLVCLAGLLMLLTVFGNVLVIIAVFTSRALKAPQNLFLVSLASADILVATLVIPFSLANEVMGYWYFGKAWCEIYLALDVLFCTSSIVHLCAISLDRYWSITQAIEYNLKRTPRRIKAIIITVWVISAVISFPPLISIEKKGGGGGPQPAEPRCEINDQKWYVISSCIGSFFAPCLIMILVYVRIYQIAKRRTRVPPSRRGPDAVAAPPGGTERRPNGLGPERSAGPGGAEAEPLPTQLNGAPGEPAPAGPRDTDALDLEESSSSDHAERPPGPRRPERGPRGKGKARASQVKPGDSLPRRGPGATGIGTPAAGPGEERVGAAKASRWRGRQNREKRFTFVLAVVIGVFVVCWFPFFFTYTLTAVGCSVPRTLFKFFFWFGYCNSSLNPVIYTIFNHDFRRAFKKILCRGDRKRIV
Procedure: To evaluate in radioligand binding assays the activity of compounds of the invention, human recombinant adrenergic α2A receptor expressed in insect Sf9 cells (Uhlen S et al. J Pharmacol Exp Ther. 271:1558, 1994) in a modified Tris-HCl buffer (50 mM Tris-HCl, pH 7.4, 12.5 mM MgCl2, 2 mM EDTA) was used. Compounds of invention were incubated with 1 nM [^3H]MK-912 for 60 min. at 25° C. MK912 is (2S-trans)-1,3,4,5′,6,6′,7,12b-octahydro-1′,3′-dimethyl-spiro[2H-benzofuro[2,3-a]quinolizine-2,4′(1′H)-pyrimidin]-2′(3′H)-one hydrochloride Non-specific binding was estimated in the presence of 10 μM WB-4101 (2-(2,6-Dimethoxyphenoxyethyl)aminomethyl-1,4-benzodioxane hydrochloride). Receptor proteins were filtered and washed, the filters were then counted to determine [^3H]MK-912 specifically bound. Compounds were screened at 1 μM or lower, using 1% DMSO as vehicle. Biochemical assay results are presented as the percent inhibition of specific binding in Table 9.

[4] = target: T3, human recombinant adrenergic α2B receptor (Homo sapiens, UniProt P18089); assay: Adrenergic α2B radioligand binding ([3H]Rauwolscine); details: percent inhibition of specific binding; compound at 1 μM; read-out: Inhibition of ligand binding, Adrenergic α2B
T3 construct: expressed in transfected cells; host or cells: Chinese hamster ovary (CHO-K1) cells
T3 sequence (P18089 1-450): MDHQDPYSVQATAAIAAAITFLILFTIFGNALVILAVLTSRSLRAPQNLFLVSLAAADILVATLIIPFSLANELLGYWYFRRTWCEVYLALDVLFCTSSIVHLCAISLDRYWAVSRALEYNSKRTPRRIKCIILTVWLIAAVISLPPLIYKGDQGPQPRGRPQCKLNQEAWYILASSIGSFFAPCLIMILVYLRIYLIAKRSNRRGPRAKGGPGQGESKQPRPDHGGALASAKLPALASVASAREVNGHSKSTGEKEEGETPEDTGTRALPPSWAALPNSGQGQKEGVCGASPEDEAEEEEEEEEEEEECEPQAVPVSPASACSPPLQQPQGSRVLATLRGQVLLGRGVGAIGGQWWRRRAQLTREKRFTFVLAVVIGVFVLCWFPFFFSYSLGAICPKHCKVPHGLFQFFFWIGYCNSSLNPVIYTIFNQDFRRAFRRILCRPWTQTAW
Procedure: To evaluate in radioligand binding assays the activity of compounds of the invention, human recombinant adrenergic α2B receptor expressed in Chinese hamster ovary (CHO-K1) cells (Uhlen S et al. Eur J Pharmacol. 343(1):93, 1998) in a modified Tris-HCl buffer (50 mM Tris-HCl, pH 7.4, 12.5 mM MgCl2, 1 mM EDTA, 0.2% BSA) was used. Compounds of the invention were incubated with 2.5 nM [^3H]Rauwolscine for 60 min. at 25° C. Non-specific binding was estimated in the presence of 10 μM Prozosin. Receptor proteins were filtered and washed, the filters were then counted to determine [^3H]Rauwolscine specifically bound. Compounds were screened at 1 μM or lower, using 1% DMSO as vehicle. Biochemical assay results are presented as the percent inhibition of specific binding in Table 9.

[5] = target: T4, human recombinant serotonin (5-Hydroxytryptamine) 5-HT2A receptor (Homo sapiens, UniProt P28223); assay: Serotonin 5-HT2A radioligand binding ([3H]Ketanserin); details: for inhibition at 1 µM: read-out: Inhibition of ligand binding, Serotonin 5-HT2A (percent inhibition of specific binding), compound at 1 μM; for inhibition at 0.1 µM: read-out: Inhibition of ligand binding, Serotonin 5-HT2A (percent inhibition of specific binding), compound at 0.1 μM
T4 construct: expressed in transfected cells; host or cells: Chinese hamster ovary (CHO-K1) cells
T4 sequence (P28223 whole entry): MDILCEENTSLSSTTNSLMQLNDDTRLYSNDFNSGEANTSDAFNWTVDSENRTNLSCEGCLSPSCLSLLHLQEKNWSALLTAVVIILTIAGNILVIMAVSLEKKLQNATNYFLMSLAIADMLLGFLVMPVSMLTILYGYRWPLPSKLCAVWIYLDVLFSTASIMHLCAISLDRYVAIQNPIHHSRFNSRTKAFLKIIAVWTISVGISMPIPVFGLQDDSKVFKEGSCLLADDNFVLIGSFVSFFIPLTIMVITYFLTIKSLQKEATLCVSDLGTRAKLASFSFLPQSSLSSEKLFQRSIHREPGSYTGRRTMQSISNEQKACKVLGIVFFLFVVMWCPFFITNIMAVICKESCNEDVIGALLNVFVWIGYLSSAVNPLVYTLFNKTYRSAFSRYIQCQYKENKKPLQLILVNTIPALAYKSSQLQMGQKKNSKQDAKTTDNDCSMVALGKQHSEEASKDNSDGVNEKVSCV
Procedure: Compounds of the invention were incubated with 0.5 nM [^3H]Ketanserin for 60 min. at 25° C. Non-specific binding was estimated in the presence of 1 μM Mianserin. Receptor proteins were filtered and washed, the filters were then counted to determine [^3H]Ketanserin specifically bound.

Chain of histamine receptor H1 (P35367 whole entry): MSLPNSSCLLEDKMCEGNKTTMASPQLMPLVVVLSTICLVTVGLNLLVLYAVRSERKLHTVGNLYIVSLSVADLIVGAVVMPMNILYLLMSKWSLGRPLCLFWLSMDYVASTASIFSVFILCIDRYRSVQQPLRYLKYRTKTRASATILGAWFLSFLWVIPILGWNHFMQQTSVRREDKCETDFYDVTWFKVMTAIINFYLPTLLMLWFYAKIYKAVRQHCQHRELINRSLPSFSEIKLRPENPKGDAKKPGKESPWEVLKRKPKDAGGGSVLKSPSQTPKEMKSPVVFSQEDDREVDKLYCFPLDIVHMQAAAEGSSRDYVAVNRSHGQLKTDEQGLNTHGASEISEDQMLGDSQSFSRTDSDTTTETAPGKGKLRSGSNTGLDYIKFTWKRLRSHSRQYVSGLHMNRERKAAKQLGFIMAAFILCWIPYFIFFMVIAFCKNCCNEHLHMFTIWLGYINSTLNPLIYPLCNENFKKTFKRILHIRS

SMILES | inhibition at 1 µM [1] [%] | inhibition at 1 µM [2] [%] | inhibition at 1 µM [3] [%] | inhibition at 1 µM [4] [%] | inhibition at 1 µM [5] [%] | Histamine Binding (1 μM) H1, percent inhibition of specific binding [1] [%] | inhibition at 0.1 µM [5] [%] | Inhibition of ligand binding, Serotonin 5-HT2A (percent inhibition of specific binding) ([5]; compound at 1 μM, 1 µM) [%]
COc1ccc(/C(C)=C/n2c3c(c4cc(Cl)ccc42)CN(C)CC3)cc1F [Compound 93, (E)-8-chloro-5-(2-(3-fluoro-4-methoxyphenyl)prop-1-enyl)-2,3,4,5-tetrahydro-2-methyl-1H-pyrido[4,3-b]indole] | 39 | 100 | 94 | 108 | 100 | – | – | –
C/C(=C\n1c2c(c3cc(Cl)ccc31)CN(C)CC2)c1ccc(Cl)cc1 [Compound 100, (E)-8-chloro-5-(2-(4-chlorophenyl)prop-1-enyl)-2,3,4,5-tetrahydro-2-methyl-1H-pyrido[4,3-b]indole] | 65 | 100 | 101 | 97 | 101 | 67 | 97 | –
CN1CCc2c(c3cc(Cl)ccc3n2/C=C(/c2ccc(F)cc2)C2CC2)C1 [Compound 110, (E)-8-chloro-5-(2-cyclopropyl-2-(4-fluorophenyl)vinyl)-2,3,4,5-tetrahydro-2-methyl-1H-pyrido[4,3-b]indole] | 77 | 102 | 99 | 92 | 98 | 83 | 102 | –
Cc1ccc(/C=C/Cn2c3c(c4cc(Cl)ccc42)CN(C)CC3)cn1 [Compound 125, 8-chloro-2,3,4,5-tetrahydro-2-methyl-5-((E)-3-(6-methylpyridin-3-yl)allyl)-1H-pyrido[4,3-b]indole] | 96 | 48 | 76 | 110 | 97 | – | – | –
CN1CCc2c(c3cc(Cl)ccc3n2C/C=C/c2ccc(F)cc2)C1 [Compound 126, 5-(4-fluorocinnamyl)-8-chloro-2,3,4,5-tetrahydro-2-methyl-1H-pyrido[4,3-b]indole] | 103 | 85 | 87 | 116 | 102 | – | – | –
CN1CCc2c(c3cc(Cl)ccc3n2C/C=C/c2ccncc2)C1 [Compound 127, 8-chloro-2,3,4,5-tetrahydro-2-methyl-5-((E)-3-(pyridin-4-yl)allyl)-1H-pyrido[4,3-b]indole] | 100 | 22 | 60 | 68 | 84 | – | – | –
C=C(Cn1c2c(c3cc(Cl)ccc31)CN(C)CC2)c1ccc(F)cc1 [Compound 128, 8-chloro-5-(2-(4-fluorophenyl)allyl)-2,3,4,5-tetrahydro-2-methyl-1H-pyrido[4,3-b]indole] | 98 | 100 | 99 | 120 | 100 | – | 99 | –
C=C(Cn1c2c(c3cc(C)ccc31)CN(C)CC2)c1ccc(F)cc1 [Compound 132, 5-(2-(4-fluorophenyl)allyl)-2,3,4,5-tetrahydro-2,8-dimethyl-1H-pyrido[4,3-b]indole] | 96 | 96 | 97 | 118 | 100 | – | – | –
C=C(Cn1c2c(c3cc(Cl)ccc31)CN(C)CC2)c1cccnc1 [Compound 133, 8-chloro-2,3,4,5-tetrahydro-2-methyl-5-(2-(pyridin-3-yl)allyl)-1H-pyrido[4,3-b]indole] | 101 | 60 | 89 | 103 | 96 | – | – | –
C=C(Cn1c2c(c3cc(Cl)ccc31)CN(C)CC2)c1ccc(C)nc1 [Compound 136, 8-chloro-2,3,4,5-tetrahydro-2-methyl-5-(2-(6-methylpyridin-3-yl)allyl)-1H-pyrido[4,3-b]indole] | 99 | 85 | 95 | 90 | 100 | – | – | –
C=C(Cn1c2c(c3cc(Cl)ccc31)CN(C)CC2)c1ccc(OC)c(F)c1 [Compound 140, 8-chloro-5-(2-(3-fluoro-4-methoxyphenyl)allyl)-2,3,4,5-tetrahydro-2-methyl-1H-pyrido[4,3-b]indole] | 98 | 99 | 86 | 106 | 98 | – | – | –
Cc1ccc2c(c1)c1c(n2CC(O)(c2ccc(F)cc2)C2CCCCC2)CCN(C)C1 (centres unmarked) [Compound 171, 1-cyclohexyl-2-(2,8-dimethyl-3,4-dihydro-1H-pyrido[4,3-b]indol-5(2H)-yl)-1-(4-fluorophenyl)ethanol] | 13 | 85 | 83 | 86 | 97 | – | 60 | –
Cc1ccc2c(c1)c1c(n2CC(O)c2ccc(F)cc2)CCN(C)C1 (centres unmarked) [Compound 172, 2-(2,8-dimethyl-3,4-dihydro-1H-pyrido[4,3-b]indol-5(2H)-yl)-1-(4-fluorophenyl)ethanol] | 95 | 65 | 98 | 104 | 91 | – | – | –
COc1ccc(C(C)(O)Cn2c3c(c4cc(C)ccc42)CN(C)CC3)cc1 (centres unmarked) [Compound 174, 1-(2,8-dimethyl-3,4-dihydro-1H-pyrido[4,3-b]indol-5(2H)-yl)-2-(4-methoxyphenyl)propan-2-ol] | 34 | 80 | 93 | 88 | 97 | – | 96 | 100
CCC(O)(Cn1c2c(c3cc(C)ccc31)CN(C)CC2)c1ccc(F)cc1 (centres unmarked) [Compound 175, 1-(2,8-dimethyl-3,4-dihydro-1H-pyrido[4,3-b]indol-5(2H)-yl)-2-(4-fluorophenyl)butan-2-ol] | 71 | 91 | 94 | 96 | 102 | – | – | –
